According to patent EP0374249A1, “METHOD OF STERILIZING PLANT POLLEN” (VSESOJUZNY NAUCHNO-ISSLEDOVATELSKY INST. SELSKOKHOZYAISTV. …, priority 1988, dated 1989):

System: Linie BK-119
Test: Field test of pollen sterilisation, sunflower line BK-119
Assay type: in vivo, Sonnenblume
Settings: period V, 0.5% emulsion; for Prozentsatz der Sterilität: 3 kg/ha (N-Karbamoylmaleaminsäure) or 0.1% emulsion, 1 kg/ha (N-(3-Dimethylaminopropyl)-maleaminsäure); for Ansetzen von Ächänen bei freier Bestäubung in %: 3 kg/ha or 0.1% emulsion, 1 kg/ha, free pollination
Text: Die gametozide Aktivität der erfindungsgemässen Sterilisationsmittel war im Feldversuch in verschiedenen Bodenklimatischen Zonen mit Teilstücken von 10 m^2 Grösse in drei- bis viermaliger Wiederholung nachgewiesen. Jedes Sterilisationsmittel wurde mindestens 5 Jahre lang geprüft.
Die Entwicklung der Perioden der Organogenese wird zytologischüberwacht. Die Behandlung von Pflanzen mit dem Sterilisationsmittel erfolgt am Anfang der fünften Periode der Organogenese nach Kupermann.
Zur Kontrolle der chemischen Sterilisation des Sonnenblumenpollens werden für jede Verbindung 45 behandelte Pflanzen jeder Wiederholung benutzt, wobei 15 Pflanzen von denen zwecks Selbstbestäurun^g des Blütenkörbchens isoliert werden, 15 andere Pflanzen mit einem Pollengemisch, gesammelt von 20 bis 25 behandelten isolierten Körbchen, bestäubt werden und 15 Pflanzen für freie Bestäubeung gelassen werden, damit das Ansetzen von Ächänen mit dem Pollen der Vaterform kontrolliert werden kann.
Man beurteilt die Pollensterilität von Pflanzen der Sonnenblume nach der Pollenfertilität und -keimfähigkeit, nach den morphologischen Besonderheiten von Spermien und nach der Fähigkeit von Achänen zum Ansetzen bei der Bestäubung der behandelten isolierten Pflanzen mit dem Pollen der unbehandelten väterlichen Form. Die Lebensfähigkeit der Eizelle wird nach der Samenbildung von behandelten Pflanzen bei freier Bestäubung der väterlichen Form ermittelt.
Pflanzen der Sonneblume Sorte Peredovik und Linie BK-119 werden in der V. Periode der Organogenese (nach Kupermann) mit einer 0,5%igen wässrigen Emulsion der N-Karbamoylmaleaminsäure behandelt. Die Emulsion enthält 0,01 Masse% Dimethylsulfoxid und 0,1 Masse% Kalziumalkylbenzolsulfonat mit 12 bis 14 Kohlenstoffatomen. Der Verbrauch an Präparat beträgt 3 kg/ha. Die gleichen Pflanzen werden mit einer 0,1masseprozentigen wässrigen Emulsion der N-(3-Dimethylaminopropyl)-maleaminsäure behandelt. Im letzten Falle enthält die Emulsion 0,01 Masse% Dodezylsulfat und 0,1 Masse% Kalziumalkylbenolsulfonat mit 12 bis 14 Kohlensotffatomen. Der Verbrauch an Präparat beträgt 1 kg/ha. Als Kontrolle dienen Pflanzen, behandelt mit einem Verdünner.ohne Sterilisationsmittel. Die Prufergenisse sind in der Tabelle 14 dargestellt. […] Periode der Organogenese erhalten.

Compound | Prozentsatz der Sterilität | Ansetzen von Ächänen bei freier Bestäubung in %
CN(C)CCCNC(=O)/C=C\C(=O)O [Beispiel 64, N-(3-Dimethylaminopropyl)-maleaminsäure] | 100,0% | 80,4%
NC(=O)NC(=O)/C=C\C(=O)O [Beispiel 61, N-Karbamoylmaleaminsäure] | 100,0% | 82,5%
